Holding throughout (type): cell-based
Data set [1] relates to SNO-oesophageal cancer cells. The method, then:
The SNO-oesophageal cancer cells were cultured in Dulbecco's modified Eagles medium (DMEM) containing 10% Foetal bovine serum (FBS), 0.8% Penicillin/Streptomycin/Fungizone and 0.2% Gentamycin. The SNO-oesophageal cancer cells were subcultured every 48 hours and incubated at 37° C. under a 5% CO2 humidified atmosphere. After 48 hours the cells were trypsinized and plated (6×10^5 cells) in 3.5 cm culture dishes and left to cultivate for 24 hours.
MCF-7 breast cancer cells, in terms of a first study, and SNO-oesophageal cancer cells, in terms of a second study, were treated with 10 μM silverthiocyanide complexes (1)-(5), as well as their ligands (Ligand-1 to Ligand-5) over a 24 hour incubation period. These complexes were dissolved in 0.1% Dimethyl sulfoxide (DMSO). The DMSO alone (vehicle control) decreased the viability with approximately 2.2%, signifying its minimal influence in cancer cell growth. For comparative purposes, 100 μM Cisplatin (CDDP) and 25% H2O2 was included which respectively serves as the apoptotic and necrotic controls. Cisplatin was prepared in 0.9% NaCl, whereas H2O2 was prepared in the supplemented DMEM media right before treatment. An untreated negative control (UT) was exposed to similar conditions as the treated cells and monitored during the experimental study.
An AlamarBlue® Viability® (Serotec, UK) assay was performed after a 24 hour treatment with complexes (1)-(5) and their ligands (Ligand-1 to Ligand-5, respectively) to evaluate the cellular effect the instant complexes (and their ligands) may have on the cancer cells. AlamarBlue® dye (10%) was incubated with trypsinized cells over a 2 hour period before the fluorescence was measured with a Synergy HT Multi-Detection Microplate reader (BioTek, Winooski, Vt.) at wavelengths of 530 nm and (excitation) and 590 nm (emission). This fluorescent based assay in particular involves the metabolic oxidation-reduction reaction of resazurin to a reduced resorufin product that is directly proportional to the amount of viable cells.
The percentage cellular viability of differentially treated SNO-oesophageal cells was determined using an AlamarBlue® assay, as depicted in FIG. 7. Different controls (grey) were included: untreated, 0.1% DMSO solvent and apoptotic control (100 μM Cisplatin) as well as the corresponding ligands (10 μM) of complexes (1)-(5). Cells were treated with silver(I) thiocyanate phosphine complexes (1)-(5) at a concentration of 10 μM. The percentages were calculated with respect to the control and error bars were constructed on the basis of Standard Error of the Mean (SEM) where n=9 except for the ligand of compound 4 (n=8). The P-values (*P<0.001 and **P<0.0001) were determined with the Student's T-test to evaluate the significant difference.
The cells were thereafter treated with complexes (6)-(9) at a concentration of 10 μM prepared in 0.1% DMSO. Treatment with either 25% H2O2 or 100 μM CDDP served as controls for necrosis and apoptosis respectively. The CDDP was prepared in 0.9% NaCl while the H2O2 was diluted with supplemented DMEM prior to treatment.
A suspension (100 μl) of the differentially treated cells was added in triplicate to a microtiter plate. In the dark, AlamarBlue® dye (10 μl) was added to each well containing a sample, followed by a 2 hour incubation in a 5% CO2 incubator at 37° C. The fluorescence was read on a Synergy HT Multi-Detection Microplate reader at a wavelength of 530 nm and (excitation) and 590 nm (emission). In terms of this study, the apoptotic control CDDP (100 μM) was included. Error bars represent the standard error of the mean (SEM) where n=9. The Student's T-test was used to determine the significant difference of the treatments with respect to DMSO (P*<0.05 and P**<0.001). The silver(I) nitrate phosphine complexes under evaluation decreased the cancer cell viability to a large extent compared to DMSO except complex (9).
SNO-oesophageal cancer cells were a gift from the University of Pretoria, RSA. […]

Data set [2] concerns peripheral blood mononucleocytes (PBMCs). Put plainly: Trypan blue viability assay of PBMCs (non-cancerous cells). Conditions: PBMCs from a healthy donor. From the text: To evaluate the relative toxicity on non-tumorigenic tissues, the ideal is to compare the effect of the compounds to a similar cell line that is non-cancerous. The Applicant is currently in the process of purchasing these cell lines and will evaluate the toxicity of the compounds in the near future. However, the Applicant did evaluate the effect of the complexes of the instant invention on peripheral blood mononucleocytes (PBMCs) isolated from fresh whole blood samples from a healthy donor. This already gives a good indication of the potential toxicity of complexes (1)-(5) in an in vivo environment.
The percentage viability of differentially treated PBMCs (peripheral blood mononucleocytes) for complexes (1)-(5) was determined by the Trypan blue viability assay, as shown in FIG. 10. Cells were treated with complexes (1)-(5). Cells treated with 0.1% DMSO and 100 μM Cisplatin were used as a vehicle and apoptotic control respectively. The SEM is indicated as error bars (n=2).

Data set [3] relates to Caspase-3/7. Description: Caspase-Glo 3/7 assay in SNO-oesophageal cancer cells. On the set-up: increase in Caspase-3/7 expression: unit not given here. Conditions: 10 μM, 24 hours treatment. The method, then:
The Caspase-Glo®3/7 assay was used to confirm that the structural changes observed are due to apoptotic cell death. In this luminescent based assay, a 1:1 ratio of the Caspase-Glo® reagent was added to treated cells into a microtiter plate. The plate was gently agitated for 30 seconds and incubated for 30 minutes at room temperature. The whole luminescent intensity was measured using a Synergy HT Multi-Detection Microplate reader, where the intensity of the luminescence is proportional to the Caspase-3/7 concentration.
The error bars where constructed based on the standard error of the mean (SEM) where n=6. The significant difference were calculated with respect to the vehicle control (P<**0.001). A relative increase in expression was observed throughout.

Data set [4] deals with A-549 lung cancer cells. Description: Morphological features of A-549 lung cancer cells by inverse light microscopy. The note with it: A-549 cells. The method, then: Morphological studies were conducted using a Zeiss Axiovert 25 Inverted Light Microscope [Carl Zeiss, Germany] with photographs taken with an Axio Cam Camera and Axio Vision 3.1 software [Carl Zeiss, Germany] at 100× magnification.
Morphological features of A-549 lung cancer cells evaluated by inverse light microscopy following differential treatments are indicated in FIG. 28: (A)=Untreated Negative Control; (B)=1% DMSO Vehicle Control (VC); (C)=100 μM Cisplatin (CDDP) Positive Apoptotic Control; (D)=Hydrogen Peroxide Positive Necrotic Control; (E)=complex (6) having a molar ratio of 1:1; (F)=Triphenylphosphine Ligand; (G)=complex (9) having a molar ratio of 1:4. Cells were visualised with Zeiss Axiovert 25 Inverted Light Microscope with photographs taken at 100× magnification. Morphology of A-549 lung cancer cells after differential treatments resembled that of the positive apoptotic control with characteristic apoptotic cellular morphology such as blebbing, rounding and cell shrinkage being observed.

The values that follow come from patent publication US10583109B2, “Use of silver(I) complexes as anticancer agents” (University of Johannesburg, priority 2012, dated 2020).

“Also recorded” adds a separate entry of the source.

As for [AgSCN{P(4-FC6H4)3}2]2 [complex (3)], in data set [1] (10 μM, 24 hour treatment, compared to the control), the “percentage cellular viability / toxicity” value is listed as “highly toxic”. Also, the “toxicity on PBMCs (decrease in viability)” value in data set [2] is given as “much lower degree of toxicity; also recorded: significantly lower degree of toxicity”.
Turning to `c1ccc([P+](c2ccccc2)(c2ccccc2)[Ag+]([P+](c2ccccc2)(c2ccccc2)c2ccccc2)([P+](c2ccccc2)(c2ccccc2)c2ccccc2)[P+](c2ccccc2)(c2ccccc2)c2ccccc2)cc1` [complex (9), AgNO3(PPh3)4], the “cancer cell viability / toxicity” value in data set [1] (10 μM in 0.1% DMSO, 24 hours, compared to vehicle control) is “low cytotoxicity”. Further, the “cancer cell death induced” value in data set [1] (10 μM, 24 hours) is listed as around 31.25%. Also, the “increase in Caspase-3/7 expression” value in data set [3] worked out at 2.74. Besides, the “signs of apoptosis (morphology)” value in data set [4] is “more effective”.
